Some test systems named below: NCI-H522 lung; SNB-75 CNS; HOP-92 NSCLC; KM12 colon; LOX IMVI melanoma; 786-0 renal; SF-295 CNS; HL-60(TB) leukemia; MOLT-4 leukemia; MCF7 breast.
Experiment in all cases: DTP human tumour cell line panel, 48 h

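Cultured in 96-well plates, cells were exposed to test compound for 48 hours across five concentrations. GI50 = concentration required for 50% inhibition of growth. TGI denotes the concentration required for complete inhibition of growth.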

As to `COc1cc2c(cc1OCCCn1c(-c3ccccn3)nc3ccccc31)N=C[C@@H]1CCCN1C2=O`, the GI50 is 1.76 µM in the assay on NCI-H522 lung; 1.72 µM in the assay on SNB-75 CNS; 3.87 µM in the assay with HOP-92 NSCLC; 1.9 µM with KM12 colon; 1.71 µM in the assay with LOX IMVI melanoma; 2.76 µM with 786-0 renal. Also, the GI50 with SF-295 CNS is 4.05 µM; with HL-60(TB) leukemia, 4.45 µM; with MOLT-4 leukemia it was 4.38 µM; in the assay on MCF7 breast it was 0.632 µM. The total growth inhibition concentration (TGI) in the assay on NCI-H522 lung amounted to 6.81 µM; in the assay on SNB-75 CNS, 5.73 µM; in the assay with HOP-92 NSCLC, 26.6 µM; in the assay on KM12 colon, 4.1 µM; in the assay on LOX IMVI melanoma it was 6.16 µM; in the assay with 786-0 renal, 10.9 µM. In addition, the TGI in the assay on SF-295 CNS was 49.7 µM; in the assay with HL-60(TB) leukemia it was more than 24.6 µM; in the assay with MOLT-4 leukemia, more than 28.6 µM; in the assay on MCF7 breast, 3.47 µM.
Take `O=C1OCC2=C1C(c1ccc(Cl)c(Cl)c1)c1cc3c(cc1N2CCO)OCCO3` (stereo not drawn): the GI50 is 0.0852 µM in the assay with NCI-H522 lung; 0.128 µM in the assay with SNB-75 CNS; 0.236 µM in the assay on HOP-92 NSCLC; 0.172 µM in the assay with KM12 colon; 0.316 µM with LOX IMVI melanoma; 0.277 µM with 786-0 renal. Moreover, the concentration for 50% growth inhibition (GI50) in the assay with SF-295 CNS is 0.151 µM; with HL-60(TB) leukemia it was 0.135 µM; in the assay with MOLT-4 leukemia, 0.456 µM; with MCF7 breast it was 0.208 µM. For the same compound, the TGI in the assay with NCI-H522 lung was found to be 0.283 µM; in the assay with SNB-75 CNS, 9.2 µM; with HOP-92 NSCLC, 8.2 µM; in the assay on KM12 colon, 7.58 µM; with LOX IMVI melanoma, 10.8 µM; in the assay with 786-0 renal, 7.62 µM. Also, the TGI in the assay with SF-295 CNS was 2.84 µM; in the assay on HL-60(TB) leukemia, 0.587 µM; in the assay with MOLT-4 leukemia it was more than 42.3 µM; with MCF7 breast it was more than 50 µM.
Consider `O=C1c2c(c3c4ccccc4[nH]c3c3ccc4ccccc4c23)C(=O)N1CCN1CCNCC1`, for which the GI50 was 1.75 µM in the assay on NCI-H522 lung; 1.47 µM in the assay on SNB-75 CNS; 1.83 µM with HOP-92 NSCLC; 1.5 µM in the assay on KM12 colon; 1.63 µM in the assay with LOX IMVI melanoma; 1.76 µM in the assay with 786-0 renal. Moreover, the GI50 in the assay on SF-295 CNS was 1.85 µM; in the assay on HL-60(TB) leukemia, 1.61 µM; in the assay with MOLT-4 leukemia it was 0.487 µM; in the assay with MCF7 breast, 1 µM. Moreover, the TGI with NCI-H522 lung came to 3.61 µM; with SNB-75 CNS, 2.82 µM; in the assay with HOP-92 NSCLC it was 4.14 µM; with KM12 colon, 3.07 µM; in the assay on LOX IMVI melanoma, 3.11 µM; in the assay on 786-0 renal, 3.21 µM. In addition, the concentration for total growth inhibition (TGI) is 3.42 µM with SF-295 CNS, 3.5 µM in the assay with HL-60(TB) leukemia, 1.88 µM with MOLT-4 leukemia and 2.42 µM with MCF7 breast.
With `O=C1CCC(N2Cc3cc(CNC(=O)C(F)(F)c4ccc(Cl)cc4)ccc3C2=O)C(=O)N1` (stereo not drawn), the GI50 in the assay on NCI-H522 lung was more than 66.1 µM; with SNB-75 CNS, 0.152 µM; in the assay with HOP-92 NSCLC it was 0.0741 µM; in the assay with KM12 colon it was 67.1 µM; in the assay with LOX IMVI melanoma, more than 100 µM; with 786-0 renal, more than 100 µM. Further, the GI50 in the assay on SF-295 CNS is more than 100 µM; in the assay with HL-60(TB) leukemia it was less than 0.01 µM; with MOLT-4 leukemia, 0.0148 µM; in the assay with MCF7 breast it was more than 100 µM. The TGI in the assay with NCI-H522 lung, in the assay on SNB-75 CNS, with HOP-92 NSCLC, in the assay with KM12 colon, in the assay with LOX IMVI melanoma and with 786-0 renal was more than 100 µM in each case. Further, the TGI in the assay with SF-295 CNS is more than 100 µM; in the assay on HL-60(TB) leukemia, 0.03 µM; in the assay on MCF7 breast, more than 100 µM.
Take `CC(C)NCCCn1c(Sc2cc3c(cc2I)OCO3)nc2c(N)ncnc21`: the GI50 is 0.0588 µM in the assay with NCI-H522 lung; 0.727 µM in the assay with SNB-75 CNS; 0.289 µM with HOP-92 NSCLC; 0.0592 µM with KM12 colon; 0.0787 µM in the assay on LOX IMVI melanoma; 0.515 µM with 786-0 renal. For the same compound, the concentration for 50% growth inhibition (GI50) in the assay with SF-295 CNS was 0.143 µM; with HL-60(TB) leukemia, 0.0637 µM; in the assay on MOLT-4 leukemia it was 0.0915 µM; with MCF7 breast, 0.0453 µM. In addition, the total growth inhibition concentration (TGI) in the assay with NCI-H522 lung is more than 100 µM; in the assay with SNB-75 CNS it was more than 100 µM; in the assay on HOP-92 NSCLC, 1.62 µM; with KM12 colon, 0.755 µM; in the assay on 786-0 renal, more than 100 µM; in the assay on SF-295 CNS, 8.52 µM. Further, the TGI with HL-60(TB) leukemia is 6.91 µM; in the assay on MOLT-4 leukemia, more than 91.9 µM; in the assay on MCF7 breast, more than 100 µM.
For the compound `Cc1ccc(/C=N\NC(=O)c2[nH]c3ccc(F)cc3c2-c2ccccc2)cc1`, the GI50 was 0.014 µM in the assay with NCI-H522 lung; 0.0382 µM in the assay on SNB-75 CNS; 0.0363 µM with HOP-92 NSCLC; 0.0282 µM with KM12 colon; 0.0339 µM in the assay with LOX IMVI melanoma; 0.0387 µM in the assay on 786-0 renal. Moreover, the GI50 was 0.0266 µM in the assay on SF-295 CNS, 0.0291 µM with HL-60(TB) leukemia, 0.0421 µM in the assay on MOLT-4 leukemia and 0.0299 µM in the assay with MCF7 breast. Besides, the TGI in the assay with NCI-H522 lung was 0.569 µM; in the assay with SNB-75 CNS, 16.6 µM; in the assay on HOP-92 NSCLC it was 50.3 µM; in the assay with KM12 colon it was 0.898 µM; in the assay with LOX IMVI melanoma, more than 100 µM; in the assay on 786-0 renal, 23.2 µM. In addition, the TGI in the assay on SF-295 CNS is 1.2 µM; in the assay on HL-60(TB) leukemia, 0.121 µM; with MOLT-4 leukemia, more than 39.5 µM; in the assay on MCF7 breast, more than 100 µM.
For the compound `O=C(Nc1ccc(OCc2nnc(-c3ccc(Cl)cc3)o2)c(F)c1)Nc1ccc(Cl)c(C(F)(F)F)c1`, the GI50 was 2.27 µM in the assay on NCI-H522 lung; 1.44 µM in the assay with SNB-75 CNS; 1.46 µM in the assay on HOP-92 NSCLC; 1.71 µM in the assay with KM12 colon; 2.23 µM in the assay on LOX IMVI melanoma; 2.05 µM in the assay with 786-0 renal. In addition, the GI50 with SF-295 CNS was 2.26 µM; with HL-60(TB) leukemia, 2.83 µM; in the assay with MOLT-4 leukemia, 2.07 µM; in the assay on MCF7 breast, 1.92 µM. The total growth inhibition concentration (TGI) came to 7.04 µM in the assay with NCI-H522 lung; 6.29 µM in the assay on SNB-75 CNS; 3.82 µM in the assay on HOP-92 NSCLC; 4.96 µM in the assay on KM12 colon; 6.66 µM with LOX IMVI melanoma; 5.1 µM in the assay with 786-0 renal. Moreover, the total growth inhibition concentration (TGI) with SF-295 CNS amounted to 6.99 µM; in the assay with HL-60(TB) leukemia it was 6.78 µM; with MOLT-4 leukemia, 7.5 µM; in the assay with MCF7 breast, 7.7 µM.

These data come from PubChem BioAssay (NCI).
